Assay results: ChEMBL document CHEMBL1909046, “DrugMatrix in vitro pharmacology data”

Tests used:
[1] = biological target: 5-hydroxytryptamine receptor 4 (Cavia porcellus, UniProt O70528); type: cell membranes, Dunkin-Hartley, Striatum, Membrane; also: in other assays of this panel Not Active means under 50% inhibition at 10 µM
[2] = DRUGMATRIX: Sigma2 radioligand binding (ligand: [3H] Ifenprodil); type: cell membranes, Rattus norvegicus, Wistar, Brain, Membrane; conditions: Not Active = under 50% inhibition at 10 µM
[3] = biological target: Vascular endothelial growth factor receptor 1 (Homo sapiens, UniProt P17948); experiment: biochemical; type: cell-based, HUVEC; conditions: huvec; also: in other assays of this panel Not Active means under 50% inhibition at 10 µM
Vascular endothelial growth factor receptor 1, sequence (P17948 whole entry): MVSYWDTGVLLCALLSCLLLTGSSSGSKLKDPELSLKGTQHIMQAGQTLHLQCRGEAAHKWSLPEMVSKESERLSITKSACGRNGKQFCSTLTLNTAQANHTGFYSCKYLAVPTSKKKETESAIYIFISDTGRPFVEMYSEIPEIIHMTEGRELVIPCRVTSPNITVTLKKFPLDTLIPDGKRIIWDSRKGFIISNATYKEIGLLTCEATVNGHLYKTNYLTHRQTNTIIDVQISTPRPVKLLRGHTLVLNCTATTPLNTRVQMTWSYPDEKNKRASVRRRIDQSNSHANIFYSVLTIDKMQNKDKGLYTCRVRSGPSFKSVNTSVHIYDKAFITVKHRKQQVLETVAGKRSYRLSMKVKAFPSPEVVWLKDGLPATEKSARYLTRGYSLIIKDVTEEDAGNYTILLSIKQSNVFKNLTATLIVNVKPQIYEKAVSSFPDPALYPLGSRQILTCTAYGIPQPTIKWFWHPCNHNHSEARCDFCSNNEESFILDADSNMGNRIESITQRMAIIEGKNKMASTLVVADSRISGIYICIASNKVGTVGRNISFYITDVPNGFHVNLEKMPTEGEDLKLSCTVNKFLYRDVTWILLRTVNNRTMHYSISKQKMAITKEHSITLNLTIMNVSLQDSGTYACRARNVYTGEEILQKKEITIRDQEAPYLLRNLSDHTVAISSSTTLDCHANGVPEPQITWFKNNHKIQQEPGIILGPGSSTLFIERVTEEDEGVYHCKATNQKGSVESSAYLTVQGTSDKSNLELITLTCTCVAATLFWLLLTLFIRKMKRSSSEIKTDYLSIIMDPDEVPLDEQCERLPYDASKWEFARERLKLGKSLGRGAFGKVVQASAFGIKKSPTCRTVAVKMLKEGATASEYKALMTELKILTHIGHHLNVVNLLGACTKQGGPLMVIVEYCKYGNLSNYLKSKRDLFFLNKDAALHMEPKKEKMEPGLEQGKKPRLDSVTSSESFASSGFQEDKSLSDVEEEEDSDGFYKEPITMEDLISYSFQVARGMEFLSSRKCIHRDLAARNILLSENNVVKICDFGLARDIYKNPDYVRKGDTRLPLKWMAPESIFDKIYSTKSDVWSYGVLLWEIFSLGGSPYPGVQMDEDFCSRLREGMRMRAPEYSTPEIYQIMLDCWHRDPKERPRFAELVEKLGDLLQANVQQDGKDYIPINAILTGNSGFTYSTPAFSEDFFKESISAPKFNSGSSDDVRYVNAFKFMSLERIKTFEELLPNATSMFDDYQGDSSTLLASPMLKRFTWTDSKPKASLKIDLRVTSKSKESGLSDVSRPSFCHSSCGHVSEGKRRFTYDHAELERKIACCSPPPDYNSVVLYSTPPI

[4] = DRUGMATRIX: Interleukin IL-1 radioligand binding (ligand: [125I] interleukin 1beta); type: cell membranes, Membrane; conditions: nih3t3; Not Active = under 50% inhibition at 10 µM
[5] = biological target: T1, Polyunsaturated fatty acid lipoxygenase ALOX15 (Oryctolagus cuniculus, UniProt P12530); experiment: biochemical; type: tissue-based, Reticulocytes; conditions: reticulocytes;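 also: inhibition of 15-lipoxygenase enzyme activity measured with linoleic acid as the substrate; in other assays of this panel Not Active means under 50% inhibition at 10 µM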
T1 sequence (P12530 whole entry): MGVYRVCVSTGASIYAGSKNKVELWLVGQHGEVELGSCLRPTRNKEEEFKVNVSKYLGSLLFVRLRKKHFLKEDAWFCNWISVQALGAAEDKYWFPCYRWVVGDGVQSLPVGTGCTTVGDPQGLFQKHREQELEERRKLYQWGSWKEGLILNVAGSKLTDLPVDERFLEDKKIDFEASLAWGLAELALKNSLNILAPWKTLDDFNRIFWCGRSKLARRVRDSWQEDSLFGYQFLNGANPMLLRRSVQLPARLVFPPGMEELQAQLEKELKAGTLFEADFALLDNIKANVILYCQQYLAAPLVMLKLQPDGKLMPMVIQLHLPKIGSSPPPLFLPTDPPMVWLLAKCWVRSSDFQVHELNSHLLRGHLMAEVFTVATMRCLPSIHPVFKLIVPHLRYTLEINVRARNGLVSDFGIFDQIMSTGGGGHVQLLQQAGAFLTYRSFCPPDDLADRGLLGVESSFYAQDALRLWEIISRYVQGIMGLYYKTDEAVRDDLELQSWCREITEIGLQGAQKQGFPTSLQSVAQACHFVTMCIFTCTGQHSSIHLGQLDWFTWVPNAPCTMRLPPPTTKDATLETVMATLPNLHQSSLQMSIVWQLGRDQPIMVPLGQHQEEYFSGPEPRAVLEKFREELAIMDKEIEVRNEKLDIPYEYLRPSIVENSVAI

[6] = biological target: T2, Nitric oxide synthase, inducible (Mus musculus, UniProt P29477); set-up: species or system Escherichia coli;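 also: inhibition of iNOS enzyme activity measured with L-arginine as substrate; in other assays of this panel Not Active means under 50% inhibition at 10 µM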
T2 sequence (P29477 whole entry): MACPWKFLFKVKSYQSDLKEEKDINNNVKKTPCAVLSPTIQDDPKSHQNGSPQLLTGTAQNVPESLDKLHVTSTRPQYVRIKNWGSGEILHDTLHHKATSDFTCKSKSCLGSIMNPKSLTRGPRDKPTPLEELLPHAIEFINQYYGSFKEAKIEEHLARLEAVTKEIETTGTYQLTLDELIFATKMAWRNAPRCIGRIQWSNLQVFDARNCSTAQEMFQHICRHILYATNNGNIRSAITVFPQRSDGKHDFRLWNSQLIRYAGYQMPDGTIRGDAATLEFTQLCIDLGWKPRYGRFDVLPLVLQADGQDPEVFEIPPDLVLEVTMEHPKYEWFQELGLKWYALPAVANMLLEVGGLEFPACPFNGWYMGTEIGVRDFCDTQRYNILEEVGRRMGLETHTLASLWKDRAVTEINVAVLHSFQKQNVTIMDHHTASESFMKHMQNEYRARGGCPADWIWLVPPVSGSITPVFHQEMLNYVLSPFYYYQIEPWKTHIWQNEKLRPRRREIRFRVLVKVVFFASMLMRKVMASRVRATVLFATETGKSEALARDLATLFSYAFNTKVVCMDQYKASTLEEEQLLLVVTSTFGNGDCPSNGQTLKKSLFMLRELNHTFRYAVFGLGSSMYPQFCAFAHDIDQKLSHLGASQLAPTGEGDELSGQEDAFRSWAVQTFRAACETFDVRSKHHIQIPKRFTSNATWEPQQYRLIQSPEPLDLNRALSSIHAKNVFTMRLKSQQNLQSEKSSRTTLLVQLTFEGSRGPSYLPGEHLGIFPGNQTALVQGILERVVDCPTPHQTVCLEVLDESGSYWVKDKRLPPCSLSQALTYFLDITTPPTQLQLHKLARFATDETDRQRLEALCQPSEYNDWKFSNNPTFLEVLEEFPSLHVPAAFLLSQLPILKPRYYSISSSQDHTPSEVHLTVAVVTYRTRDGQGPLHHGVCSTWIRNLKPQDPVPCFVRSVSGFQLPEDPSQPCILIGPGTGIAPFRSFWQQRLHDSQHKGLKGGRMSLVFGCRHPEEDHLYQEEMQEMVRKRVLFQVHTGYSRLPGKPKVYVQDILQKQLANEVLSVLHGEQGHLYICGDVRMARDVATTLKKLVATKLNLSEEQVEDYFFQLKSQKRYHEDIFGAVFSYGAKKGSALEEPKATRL

[7] = DRUGMATRIX: Phorbol Ester radioligand binding (ligand: [3H] PDBu); type: cell membranes, Mus musculus, ICR, Brain, Membrane; conditions: Not Active = under 50% inhibition at 10 µM
[8] = biological target: 5-hydroxytryptamine receptor 1B (Rattus norvegicus, UniProt P28564); type: cell membranes, Wistar, Cerebral cortex, Membrane; also: in other assays of this panel Not Active means under 50% inhibition at 10 µM
5-hydroxytryptamine receptor 1B, sequence (P28564 whole entry): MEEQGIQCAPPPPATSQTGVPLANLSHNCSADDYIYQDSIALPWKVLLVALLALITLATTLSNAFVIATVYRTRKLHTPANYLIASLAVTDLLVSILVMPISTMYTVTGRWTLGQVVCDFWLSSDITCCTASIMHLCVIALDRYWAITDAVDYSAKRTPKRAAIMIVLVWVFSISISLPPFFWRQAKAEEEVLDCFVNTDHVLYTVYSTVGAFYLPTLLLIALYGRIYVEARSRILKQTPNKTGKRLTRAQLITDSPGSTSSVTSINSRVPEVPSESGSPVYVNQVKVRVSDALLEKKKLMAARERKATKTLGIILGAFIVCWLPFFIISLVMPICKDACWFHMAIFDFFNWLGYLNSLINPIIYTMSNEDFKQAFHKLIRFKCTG

Cytochrome P450 2C9 = Cytochrome P450 2C9 (Homo sapiens, UniProt P11712); conditions: bti-tn-5b1-4; also: in other assays of this panel Not Active means under 50% inhibition at 10 µM
Cytochrome P450 2C9, sequence (P11712 whole entry): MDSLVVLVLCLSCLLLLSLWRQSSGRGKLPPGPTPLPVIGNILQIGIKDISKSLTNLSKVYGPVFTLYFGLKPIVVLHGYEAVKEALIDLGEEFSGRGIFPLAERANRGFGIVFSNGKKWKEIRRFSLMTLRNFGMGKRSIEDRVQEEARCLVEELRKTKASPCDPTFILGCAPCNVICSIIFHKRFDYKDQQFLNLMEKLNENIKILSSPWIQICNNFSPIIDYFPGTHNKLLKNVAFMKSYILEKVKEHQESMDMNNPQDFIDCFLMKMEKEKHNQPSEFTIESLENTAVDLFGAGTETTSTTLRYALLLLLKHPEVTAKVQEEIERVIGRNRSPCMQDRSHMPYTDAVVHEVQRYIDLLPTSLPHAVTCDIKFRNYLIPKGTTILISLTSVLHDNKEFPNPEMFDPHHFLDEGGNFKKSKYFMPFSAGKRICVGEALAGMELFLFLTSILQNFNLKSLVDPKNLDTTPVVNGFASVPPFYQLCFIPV

5-hydroxytryptamine receptor 4, sequence (O70528 whole entry): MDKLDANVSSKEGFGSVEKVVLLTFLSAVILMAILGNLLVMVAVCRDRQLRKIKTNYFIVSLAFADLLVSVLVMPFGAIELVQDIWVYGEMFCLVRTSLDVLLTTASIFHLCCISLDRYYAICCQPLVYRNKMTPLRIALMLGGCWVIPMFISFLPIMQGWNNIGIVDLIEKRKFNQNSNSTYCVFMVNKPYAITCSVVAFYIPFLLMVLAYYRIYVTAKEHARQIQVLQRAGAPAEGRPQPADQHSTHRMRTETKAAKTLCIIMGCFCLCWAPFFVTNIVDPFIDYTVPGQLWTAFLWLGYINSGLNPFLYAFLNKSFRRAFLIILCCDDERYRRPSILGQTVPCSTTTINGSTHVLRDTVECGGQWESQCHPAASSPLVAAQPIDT

CC(C)(C)NC[C@H](O)COc1nsnc1N1CCOCC1 [TIMOLOL]
Not Active: IC50 [1] | IC50 [2] | Ki [2] | IC50 [3] | IC50 [4] | Ki [4] | IC50 [5] | IC50 [6] | IC50 [7] | Ki [7] | IC50 [8] | IC50 (Cytochrome P450 2C9) | Ki (Cytochrome P450 2C9)

CC1=C(CC(=O)O)c2cc(F)ccc2/C1=C\c1ccc(S(C)(=O)=O)cc1 [EXISULIND]
Not Active: IC50 [1] | IC50 [2] | Ki [2] | IC50 [3] | IC50 [4] | Ki [4] | IC50 [5] | IC50 [6] | IC50 [7] | Ki [7] | IC50 [8] | IC50 (Cytochrome P450 2C9) | Ki (Cytochrome P450 2C9)

COc1ncnc(NS(=O)(=O)c2ccc(N)cc2)c1OC [SULFADOXINE]
Not Active: IC50 [1] | IC50 [2] | Ki [2] | IC50 [3] | IC50 [4] | Ki [4] | IC50 [5] | IC50 [6] | IC50 [7] | Ki [7] | IC50 [8] | IC50 (Cytochrome P450 2C9) | Ki (Cytochrome P450 2C9)

Cc1cn([C@H]2C[C@H](N=[N+]=[N-])[C@@H](CO)O2)c(=O)[nH]c1=O [ZIDOVUDINE]
Not Active: IC50 [1] | IC50 [2] | Ki [2] | IC50 [3] | IC50 [4] | Ki [4] | IC50 [5] | IC50 [6] | IC50 [7] | Ki [7] | IC50 [8] | IC50 (Cytochrome P450 2C9) | Ki (Cytochrome P450 2C9)

THIMEROSAL
Not Active: IC50 [1] | Ki [1] | IC50 [2] | Ki [2] | IC50 [3] | Ki [3] | IC50 [4] | Ki [4] | IC50 [5] | Ki [5] | IC50 [6] | Ki [6] | IC50 [7] | Ki [7] | IC50 [8] | Ki [8] | IC50 (Cytochrome P450 2C9) | Ki (Cytochrome P450 2C9)

NC[C@H]1O[C@H](O[C@H]2[C@H](O)[C@@H](O[C@H]3O[C@H](CO)[C@@H](O)[C@H](N)[C@H]3O)[C@H](N)C[C@@H]2N)[C@H](N)C[C@@H]1O [TOBRAMYCIN]
Not Active: IC50 [1] | IC50 [2] | Ki [2] | IC50 [3] | IC50 [4] | Ki [4] | IC50 [5] | IC50 [6] | IC50 [7] | Ki [7] | IC50 [8] | IC50 (Cytochrome P450 2C9) | Ki (Cytochrome P450 2C9)

O=P(O)(O)C(O)(Cc1cccnc1)P(=O)(O)O [RISEDRONIC ACID]
Not Active: IC50 [1] | IC50 [2] | Ki [2] | IC50 [3] | IC50 [4] | Ki [4] | IC50 [5] | IC50 [6] | IC50 [7] | Ki [7] | IC50 [8] | IC50 (Cytochrome P450 2C9) | Ki (Cytochrome P450 2C9)

Nc1ccc(S(=O)(=O)Nc2nccs2)cc1 [SULFATHIAZOLE]
Not Active: IC50 [1] | IC50 [2] | Ki [2] | IC50 [3] | IC50 [4] | Ki [4] | IC50 [5] | IC50 [6] | IC50 [7] | Ki [7] | IC50 [8] | IC50 (Cytochrome P450 2C9) | Ki (Cytochrome P450 2C9)

Nc1ccc(S(=O)(=O)Nc2ncccn2)cc1 [SULFADIAZINE]
Not Active: IC50 [1] | IC50 [2] | Ki [2] | IC50 [3] | IC50 [4] | Ki [4] | IC50 [5] | IC50 [6] | IC50 [7] | Ki [7] | IC50 [8] | IC50 (Cytochrome P450 2C9) | Ki (Cytochrome P450 2C9)

CN[C@@H]1[C@H](O)[C@H](NC)[C@H]2O[C@@]3(O)C(=O)C[C@@H](C)O[C@H]3O[C@@H]2[C@H]1O [SPECTINOMYCIN]
Not Active: IC50 [1] | IC50 [2] | Ki [2] | IC50 [3] | IC50 [4] | Ki [4] | IC50 [5] | IC50 [6] | IC50 [7] | Ki [7] | IC50 [8] | IC50 (Cytochrome P450 2C9) | Ki (Cytochrome P450 2C9)

CN(CCOc1ccc(CC2SC(=O)NC2=O)cc1)c1ccccn1 (stereo not drawn) [ROSIGLITAZONE]
Not Active: IC50 [1] | IC50 [2] | Ki [2] | IC50 [3] | IC50 [4] | Ki [4] | IC50 [5] | IC50 [6] | IC50 [7] | Ki [7] | IC50 [8] | IC50 (Cytochrome P450 2C9) | Ki (Cytochrome P450 2C9)

C=C(C)[C@H]1Cc2c(ccc3c2O[C@@H]2COc4cc(OC)c(OC)cc4[C@@H]2C3=O)O1 [ROTENONE]
Not Active: IC50 [1] | IC50 [2] | Ki [2] | IC50 [3] | IC50 [4] | Ki [4] | IC50 [5] | IC50 [6] | IC50 [7] | Ki [7] | IC50 [8] | IC50 (Cytochrome P450 2C9) | Ki (Cytochrome P450 2C9)

O=C(O)C(Cl)(Cl)Cl [TRICHLOROACETIC ACID]
Not Active: IC50 [1] | IC50 [2] | Ki [2] | IC50 [3] | IC50 [4] | Ki [4] | IC50 [5] | IC50 [6] | IC50 [7] | Ki [7] | IC50 [8] | IC50 (Cytochrome P450 2C9) | Ki (Cytochrome P450 2C9)

CCCc1nn(C)c2c(=O)[nH]c(-c3cc(S(=O)(=O)N4CCN(C)CC4)ccc3OCC)nc12
Not Active: IC50 [1] | IC50 [2] | Ki [2] | IC50 [3] | IC50 [4] | Ki [4] | IC50 [5] | IC50 [6] | IC50 [7] | Ki [7] | IC50 [8] | IC50 (Cytochrome P450 2C9) | Ki (Cytochrome P450 2C9)

Nc1nc2c(c(=O)[nH]1)N(C=O)C(CNc1ccc(C(=O)N[C@@H](CCC(=O)O)C(=O)O)cc1)CN2 (stereo partly drawn) [LEUCOVORIN]
Not Active: IC50 [1] | IC50 [2] | Ki [2] | IC50 [3] | IC50 [4] | Ki [4] | IC50 [5] | IC50 [6] | IC50 [7] | Ki [7] | IC50 [8] | IC50 (Cytochrome P450 2C9) | Ki (Cytochrome P450 2C9)

C#CCN(C)[C@H](C)Cc1ccccc1 [SELEGILINE]
Not Active: IC50 [1] | IC50 [2] | Ki [2] | IC50 [3] | IC50 [4] | Ki [4] | IC50 [5] | IC50 [6] | IC50 [7] | Ki [7] | IC50 [8] | IC50 (Cytochrome P450 2C9) | Ki (Cytochrome P450 2C9)
